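Interpolation was linear, between the two tested concentrations surrounding the appropriate level; five concentrations were tested over 48 hours in 96-well plates. TGI is the concentration that stops growth completely.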
Experiments:
Assay in all cases: NCI tumour cell line growth inhibition, 48 h
UO-31 renal = tested on: UO-31 renal
MDA-N = tested on: MDA-N
UACC-62 melanoma = tested on: UACC-62 melanoma
HCT-116 colon = tested on: HCT-116 colon
HOP-92 NSCLC = tested on: HOP-92 NSCLC
HS 578T breast = tested on: HS 578T breast
RXF 393 renal = tested on: RXF 393 renal
OVCAR-5 ovarian = tested on: OVCAR-5 ovarian
SF-268 CNS = tested on: SF-268 CNS
ACHN renal = tested on: ACHN renal
HT29 colon = tested on: HT29 colon
MOLT-4 leukemia = tested on: MOLT-4 leukemia
UACC-257 melanoma = tested on: UACC-257 melanoma
OVCAR-8 ovarian = tested on: OVCAR-8 ovarian
LOX IMVI melanoma = tested on: LOX IMVI melanoma
SN12C renal = tested on: SN12C renal
SF-539 CNS = tested on: SF-539 CNS
SNB-75 CNS = tested on: SNB-75 CNS
M14 melanoma = tested on: M14 melanoma
SR leukemia = tested on: SR leukemia
EKVX NSCLC = tested on: EKVX NSCLC
COLO 205 colon = tested on: COLO 205 colon
786-0 renal = tested on: 786-0 renal
SK-MEL-5 melanoma = tested on: SK-MEL-5 melanoma
SK-MEL-2 melanoma = tested on: SK-MEL-2 melanoma
HCC-2998 colon = tested on: HCC-2998 colon
DU-145 prostate = tested on: DU-145 prostate
NCI/ADR-RES ovarian = tested on: NCI/ADR-RES ovarian
PC-3 prostate = tested on: PC-3 prostate
IGROV1 ovarian = tested on: IGROV1 ovarian
SK-OV-3 ovarian = tested on: SK-OV-3 ovarian
HOP-62 NSCLC = tested on: HOP-62 NSCLC
SF-295 CNS = tested on: SF-295 CNS
K-562 leukemia = tested on: K-562 leukemia
NCI-H460 lung = tested on: NCI-H460 lung
OVCAR-3 ovarian = tested on: OVCAR-3 ovarian
TK-10 renal = tested on: TK-10 renal
NCI-H23 lung = tested on: NCI-H23 lung
CCRF-CEM leukemia = tested on: CCRF-CEM leukemia
SNB-19 CNS = tested on: SNB-19 CNS
RPMI-8226 leukemia = tested on: RPMI-8226 leukemia
SK-MEL-28 melanoma = tested on: SK-MEL-28 melanoma
KM12 colon = tested on: KM12 colon
BT-549 breast = tested on: BT-549 breast
A549 NSCLC = tested on: A549 NSCLC
U251 CNS = tested on: U251 CNS
NCI-H522 lung = tested on: NCI-H522 lung
MDA-MB-231 breast = tested on: MDA-MB-231 breast
NCI-H226 lung = tested on: NCI-H226 lung
A498 renal = tested on: A498 renal
CAKI-1 renal = tested on: CAKI-1 renal
SW-620 colon = tested on: SW-620 colon
MDA-MB-435 = tested on: MDA-MB-435
HCT-15 colon = tested on: HCT-15 colon
T-47D breast = tested on: T-47D breast
MCF7 breast = tested on: MCF7 breast
OVCAR-4 ovarian = tested on: OVCAR-4 ovarian
HL-60(TB) leukemia = tested on: HL-60(TB) leukemia
MALME-3M melanoma = tested on: MALME-3M melanoma

Question: For `Cn1c2ccccc2c(=S)c2ccccc21`, which TGI (UO-31 renal) is on record?
Answer: > 100 µM

Question: What about the TGI (MDA-N) of the same compound?
Answer: > 100 µM

Question: And the TGI (UACC-62 melanoma)?
Answer: > 100 µM

Question: And the TGI (HCT-116 colon)?
Answer: > 100 µM

Question: And the TGI (HOP-92 NSCLC)?
Answer: > 100 µM

Question: And the TGI (HS 578T breast)?
Answer: > 100 µM

Question: And the TGI (RXF 393 renal)?
Answer: > 100 µM

Question: And the TGI (OVCAR-5 ovarian)?
Answer: > 100 µM

Question: What about the TGI (SF-268 CNS) of the same compound?
Answer: > 100 µM

Question: What about the TGI (ACHN renal) of the same compound?
Answer: > 100 µM

Question: And the TGI (HT29 colon)?
Answer: > 100 µM

Question: And the TGI (MOLT-4 leukemia)?
Answer: > 100 µM

Question: What about the TGI (UACC-257 melanoma) of the same compound?
Answer: > 100 µM

Question: And the TGI (OVCAR-8 ovarian)?
Answer: > 100 µM

Question: What about the TGI (LOX IMVI melanoma) of the same compound?
Answer: > 100 µM

Question: And the TGI (SN12C renal)?
Answer: > 100 µM

Question: And the TGI (SF-539 CNS)?
Answer: > 100 µM

Question: And the TGI (SNB-75 CNS)?
Answer: > 100 µM

Question: And the TGI (M14 melanoma)?
Answer: > 100 µM

Question: And the TGI (SR leukemia)?
Answer: > 100 µM

Question: What about the TGI (EKVX NSCLC) of the same compound?
Answer: > 100 µM

Question: What about the TGI (COLO 205 colon) of the same compound?
Answer: > 100 µM

Question: And the TGI (786-0 renal)?
Answer: > 100 µM

Question: And the TGI (SK-MEL-5 melanoma)?
Answer: > 100 µM

Question: What about the TGI (SK-MEL-2 melanoma) of the same compound?
Answer: > 100 µM

Question: What about the TGI (HCC-2998 colon) of the same compound?
Answer: > 100 µM

Question: What about the TGI (DU-145 prostate) of the same compound?
Answer: > 100 µM

Question: What about the TGI (NCI/ADR-RES ovarian) of the same compound?
Answer: > 100 µM

Question: And the TGI (PC-3 prostate)?
Answer: > 100 µM

Question: What about the TGI (IGROV1 ovarian) of the same compound?
Answer: > 100 µM

Question: And the TGI (SK-OV-3 ovarian)?
Answer: > 100 µM

Question: What about the TGI (HOP-62 NSCLC) of the same compound?
Answer: > 100 µM

Question: What about the TGI (SF-295 CNS) of the same compound?
Answer: > 100 µM

Question: What about the TGI (K-562 leukemia) of the same compound?
Answer: > 100 µM

Question: What about the TGI (NCI-H460 lung) of the same compound?
Answer: > 100 µM

Question: And the TGI (OVCAR-3 ovarian)?
Answer: > 100 µM

Question: What about the TGI (TK-10 renal) of the same compound?
Answer: > 100 µM

Question: What about the TGI (NCI-H23 lung) of the same compound?
Answer: > 100 µM

Question: What about the TGI (CCRF-CEM leukemia) of the same compound?
Answer: > 100 µM

Question: And the TGI (SNB-19 CNS)?
Answer: > 100 µM

Question: What about the TGI (RPMI-8226 leukemia) of the same compound?
Answer: > 100 µM

Question: What about the TGI (SK-MEL-28 melanoma) of the same compound?
Answer: > 100 µM

Question: What about the TGI (KM12 colon) of the same compound?
Answer: > 100 µM

Question: And the TGI (BT-549 breast)?
Answer: > 100 µM

Question: What about the TGI (A549 NSCLC) of the same compound?
Answer: > 100 µM

Question: And the TGI (U251 CNS)?
Answer: > 100 µM

Question: And the TGI (NCI-H522 lung)?
Answer: > 100 µM

Question: What about the TGI (MDA-MB-231 breast) of the same compound?
Answer: > 100 µM

Question: What about the TGI (NCI-H226 lung) of the same compound?
Answer: > 100 µM

Question: What about the TGI (A498 renal) of the same compound?
Answer: > 100 µM

Question: What about the TGI (CAKI-1 renal) of the same compound?
Answer: > 100 µM

Question: And the TGI (SW-620 colon)?
Answer: > 100 µM

Question: What about the TGI (MDA-MB-435) of the same compound?
Answer: > 100 µM

Question: What about the TGI (HCT-15 colon) of the same compound?
Answer: > 100 µM

Question: And the TGI (T-47D breast)?
Answer: > 100 µM

Question: And the TGI (MCF7 breast)?
Answer: > 100 µM

Question: With `O=[N+]([O-])C(Cl)C(Cl)C(Cl)=C(Cl)Cl` (stereo unspecified) as the compound, how does the TGI (UO-31 renal) read?
Answer: > 31.6 µM

Question: What about the TGI (MDA-N) of the same compound?
Answer: 40.6 µM

Question: What about the TGI (UACC-62 melanoma) of the same compound?
Answer: 32.9 µM

Question: What about the TGI (HCT-116 colon) of the same compound?
Answer: 38.3 µM

Question: What about the TGI (HS 578T breast) of the same compound?
Answer: 67.5 µM

Question: And the TGI (RXF 393 renal)?
Answer: 33.7 µM

Question: And the TGI (OVCAR-5 ovarian)?
Answer: > 82.2 µM

Question: What about the TGI (SF-268 CNS) of the same compound?
Answer: > 70.5 µM

Question: And the TGI (ACHN renal)?
Answer: 31.1 µM

Question: What about the TGI (HT29 colon) of the same compound?
Answer: 36.4 µM

Question: What about the TGI (MOLT-4 leukemia) of the same compound?
Answer: 47.8 µM

Question: What about the TGI (UACC-257 melanoma) of the same compound?
Answer: 41.9 µM

Question: And the TGI (OVCAR-8 ovarian)?
Answer: > 75.2 µM

Question: What about the TGI (LOX IMVI melanoma) of the same compound?
Answer: 28.8 µM

Question: And the TGI (SN12C renal)?
Answer: > 57.7 µM

Question: And the TGI (SF-539 CNS)?
Answer: > 70 µM

Question: And the TGI (SNB-75 CNS)?
Answer: > 72.7 µM

Question: What about the TGI (M14 melanoma) of the same compound?
Answer: 19.5 µM

Question: And the TGI (EKVX NSCLC)?
Answer: > 100 µM

Question: What about the TGI (COLO 205 colon) of the same compound?
Answer: 34 µM

Question: And the TGI (786-0 renal)?
Answer: 22.3 µM

Question: And the TGI (OVCAR-4 ovarian)?
Answer: 31.9 µM

Question: And the TGI (SK-MEL-5 melanoma)?
Answer: 24.4 µM

Question: What about the TGI (HCC-2998 colon) of the same compound?
Answer: > 56.7 µM

Question: And the TGI (DU-145 prostate)?
Answer: > 100 µM

Question: And the TGI (NCI/ADR-RES ovarian)?
Answer: > 73.9 µM

Question: What about the TGI (PC-3 prostate) of the same compound?
Answer: > 57.4 µM

Question: What about the TGI (IGROV1 ovarian) of the same compound?
Answer: 18.3 µM

Question: And the TGI (SK-OV-3 ovarian)?
Answer: > 100 µM

Question: What about the TGI (HOP-62 NSCLC) of the same compound?
Answer: > 100 µM

Question: What about the TGI (SF-295 CNS) of the same compound?
Answer: > 100 µM

Question: What about the TGI (K-562 leukemia) of the same compound?
Answer: 85.2 µM

Question: And the TGI (NCI-H460 lung)?
Answer: > 100 µM

Question: What about the TGI (OVCAR-3 ovarian) of the same compound?
Answer: > 56.7 µM

Question: And the TGI (TK-10 renal)?
Answer: 39.4 µM

Question: And the TGI (NCI-H23 lung)?
Answer: 60.4 µM

Question: And the TGI (CCRF-CEM leukemia)?
Answer: 58.6 µM

Question: What about the TGI (SNB-19 CNS) of the same compound?
Answer: > 100 µM

Question: What about the TGI (SK-MEL-28 melanoma) of the same compound?
Answer: 39 µM

Question: What about the TGI (KM12 colon) of the same compound?
Answer: > 100 µM

Question: What about the TGI (BT-549 breast) of the same compound?
Answer: 43.9 µM

Question: And the TGI (HL-60(TB) leukemia)?
Answer: 44.1 µM

Question: What about the TGI (A549 NSCLC) of the same compound?
Answer: > 100 µM

Question: What about the TGI (U251 CNS) of the same compound?
Answer: > 100 µM

Question: And the TGI (NCI-H522 lung)?
Answer: 38.4 µM

Question: And the TGI (MDA-MB-231 breast)?
Answer: 34.6 µM

Question: What about the TGI (NCI-H226 lung) of the same compound?
Answer: > 100 µM

Question: And the TGI (A498 renal)?
Answer: > 100 µM

Question: What about the TGI (CAKI-1 renal) of the same compound?
Answer: 33.2 µM

Question: And the TGI (SW-620 colon)?
Answer: 38.3 µM

Question: What about the TGI (MALME-3M melanoma) of the same compound?
Answer: 32.9 µM

Question: What about the TGI (MDA-MB-435) of the same compound?
Answer: 56.7 µM

Question: What about the TGI (HCT-15 colon) of the same compound?
Answer: 39.7 µM

Question: And the TGI (T-47D breast)?
Answer: 47.9 µM

Question: What about the TGI (MCF7 breast) of the same compound?
Answer: > 54.9 µM

Reference: PubChem BioAssay (NCI)
